Patent US20100178305A1, “ULTRASONIC NANOTHERAPY OF SOLID TUMORS WITH BLOCK COPOLYMERS STABILIZED PERFLUOROCARBON NANODROPLETS” (UNIVERSITY OF UTAH RESEARCH FOUNDATION, priority 2008, published 2010)

Tests used:
[1] = tested on: red fluorescent protein labeled MiaPaCa-2 cells; assay: Orthotopic pancreatic cancer model, chemotherapy with or without ultrasound; type: in vivo, Mice; settings: no ultrasound treatment
Description: Orthotopic pancreatic cancer was inoculated surgically in the pancreatic tail. Mice received a single sub-capsular injection of 1×10^6 red fluorescent protein labeled MiaPaCa-2 cells suspended in 0.125 mL serum free media (DMEM). All procedures were done utilizing a 12× Universal S3B microscope.
Following the primary surgery, high resolution (3456 pixels×2304 pixels) whole body digital images (EOS Digital Rebel, Canon USA, Lake Success, N.Y.) of each mouse were obtained once a week to monitor primary tumor growth and presence of metastases. The red fluorescent protein was visualized with an Illumatool Bright Light System that consisted of a 563 nm excitation filter and a 587 nm emission filter (Model LT-9900, LightTools Research, Encinitas, Calif.). Animals were imaged under nose-cone induced isoflurane general anesthesia. Primary tumor area was quantified using public domain software ImageJ (National Institutes of Health http://rsb.info.nih.gov/ij/).
Animals were randomly assigned to six groups, six animals each: (1) negative control (injection of PBS); (2) GEM at 140 mg/kg (positive control 1); (3) GEN at 20 mg/kg as PTX (positive control 2); (4) GEM+GEN combination treatment; (5) GEN+ultrasound; (6) GEM+nbGEN+ultrasound. […] Nominal ultrasound intensity was 3.4 W/cm^2, which corresponded to a measured MI=0.59. […]

[2] = tested on: MDA MB231 breast cancer cell suspension; assay: Ultrasound-induced DOX transfer from bubble walls into cells (fluorescence); type: cell-based; settings: 0.75 mg/ml Dox/0.5% PEG-PLLA/2% PFP formulation; 3-MHz ultrasound, 2 W/cm^2, 20% duty cycle, 30-s exposure
From the text: (B) Fluorescence image of the MDA MB231 cell (thick arrow) and bubble (thin arrow) aggregates formed in the capillary during a 150-s sonication (corresponding to a 30-s ultrasound exposure time) by 3-MHz ultrasound at a 2 W/cm^2 nominal power density with a 20% duty cycle, with the focus on the bubbles. Ultrasound was applied directly to the slide through the Aquasonic coupling gel. (C) Fluorescence image of another cell aggregate of the same sample, with focus on the cells.
The elucidation of this problem would allow designing optimal ultrasound protocols. Previous data was re-evaluated. These experiments were performed by sonicating a nanodroplet/cell mixture placed in a plastic capillary (internal diameter 340 μm) of a snake mixer slide.

| SMILES | Ascitis in ultrasound images [1] | Cell fluorescence after sonication (DOX transfer into cells) [2] |
| --- | --- | --- |
| Nc1ccn([C@@H]2O[C@H](CO)[C@@H](O)C2(F)F)c(=O)n1 [GEM, gemcitabine] | clearly visible |  |
| COc1cccc2c1C(=O)c1c(O)c3c(c(O)c1C2=O)C[C@@](O)(C(=O)CO)C[C@@H]3O[C@H]1C[C@H](N)[C@H](O)[C@H](C)O1 [DOX, doxorubicin] |  | acquired strong fluorescence |
